From paper PMC5511029 (Journal of molecular biology, 2017)

Target: E. coli cysteinyl-tRNA synthetase (EcCysRS) (Escherichia coli, UniProt P21888)
Assay: aminoacylation of E. coli tRNA-Cys with […]-Cys by purified CysRS
Assay type: biochemical

Sequence of E. coli cysteinyl-tRNA synthetase (EcCysRS) (P21888 whole entry): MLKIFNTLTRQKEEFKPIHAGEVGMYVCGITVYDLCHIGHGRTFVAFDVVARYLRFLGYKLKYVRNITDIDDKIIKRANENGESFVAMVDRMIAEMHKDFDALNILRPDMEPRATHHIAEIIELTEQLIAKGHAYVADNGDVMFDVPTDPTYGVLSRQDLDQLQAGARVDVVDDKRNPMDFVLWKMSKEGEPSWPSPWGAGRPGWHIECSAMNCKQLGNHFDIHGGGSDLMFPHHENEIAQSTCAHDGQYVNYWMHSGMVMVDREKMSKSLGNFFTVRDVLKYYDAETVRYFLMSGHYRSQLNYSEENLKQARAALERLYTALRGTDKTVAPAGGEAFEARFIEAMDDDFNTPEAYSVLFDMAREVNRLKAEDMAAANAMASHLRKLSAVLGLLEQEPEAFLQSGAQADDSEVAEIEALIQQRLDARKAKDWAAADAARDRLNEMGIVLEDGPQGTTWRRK

## Nc1ncnc2c1ncn2[C@@H]1O[C@H](COS(=O)(=O)NC(=O)[C@@H](N)CS)[C@@H](O)[C@H]1O [Cys-AMS]
  IC50: < 600 nM
